Source: patent US20050261298A1, “Methods of treating conditions associated with an Edg-7 receptor” (priority 2002, published 2005)

Key:
[1] = target: T1, Edg-1 (Homo sapiens, UniProt P21453); experiment: Calcium mobilization assay (FLIPR), inhibition of S1P-stimulated calcium increase; format: cell-based; details: HTC cells expressing Edg-1
T1 construct: expressed in transfected cells; host or cells: HTC rat hepatoma cells

[2] = target: T2, Edg-5 (Homo sapiens, UniProt O95136); experiment: as above; format: cell-based; details: HTC cells expressing Edg-5
T2 construct: expressed in transfected cells; host or cells: HTC rat hepatoma cells
T2 sequence (O95136 whole entry): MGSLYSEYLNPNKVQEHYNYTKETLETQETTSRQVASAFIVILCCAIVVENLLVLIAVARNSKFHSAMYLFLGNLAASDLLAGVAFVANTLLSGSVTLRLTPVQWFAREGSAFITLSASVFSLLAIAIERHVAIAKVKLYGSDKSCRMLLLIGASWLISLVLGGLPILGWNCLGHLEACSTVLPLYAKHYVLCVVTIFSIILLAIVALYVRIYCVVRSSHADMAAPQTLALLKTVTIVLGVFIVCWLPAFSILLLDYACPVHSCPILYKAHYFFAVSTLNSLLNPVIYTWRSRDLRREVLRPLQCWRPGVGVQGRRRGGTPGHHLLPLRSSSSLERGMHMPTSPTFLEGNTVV

[3] = target: T3, human Edg 7 receptors (Homo sapiens, UniProt Q9UBY5); experiment: Calcium mobilization assay (FLIPR), inhibition of LPA response; format: cell-based
T3 construct: expressed in transfected cells
T3 sequence (Q9UBY5 1-353): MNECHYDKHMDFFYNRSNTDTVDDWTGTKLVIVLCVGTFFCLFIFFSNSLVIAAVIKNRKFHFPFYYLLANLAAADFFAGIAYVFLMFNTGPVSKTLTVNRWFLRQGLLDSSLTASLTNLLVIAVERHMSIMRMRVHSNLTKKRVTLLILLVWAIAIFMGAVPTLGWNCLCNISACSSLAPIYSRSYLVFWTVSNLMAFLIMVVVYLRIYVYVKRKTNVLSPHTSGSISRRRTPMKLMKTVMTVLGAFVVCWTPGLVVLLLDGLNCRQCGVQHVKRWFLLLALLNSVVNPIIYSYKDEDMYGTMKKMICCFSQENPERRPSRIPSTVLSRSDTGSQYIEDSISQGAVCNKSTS
Description: The compounds were tested in HTC cells expressing human Edg 7 receptors. […] The compounds are tested in this recombinant system first, and subsequently tested in cell lines expressing Edg-7 (in addition to other Edg receptors).
The radioligand binding assays were conducted as described in Section 6.15 (Example 15).
LPA receptors such as Edg-7, couple to calcium effector pathways, and result in increases in intracellular calcium following receptor activation (An, 1998, J. Cell. Biochem Supp. 30-31:147-157). This biological response lends itself to a very efficient, high-throughput screen using a Fluorescence Imaging Plate Reader (FLIPR; Molecular Devices, Sunnyvale, Calif.). The FLIPR system is a real-time, cell-based assay system with continuous fluorescence detection using a cooled CCD camera. The FLIPR system was used to developing an Edg-7 receptor screen. Rat hepatoma cells stably expressing Edg-7 receptor were plated on 384-well plates and loaded with a calcium dye loading kit (Molecular Devices, Sunnyvale, Calif.) for 1 hour at room temperature. Cells were then placed on the FLIPR^384 (Molecular Devices, Sunnyvale, Calif.) and excited by an argon laser at […]. The data for the entire 384-well plate was updated every second. An integrated robotic pipettor allowed for simultaneous compound addition into each individual well in the plate

[4] = target: T4, Edg-8 (Homo sapiens, UniProt Q9H228); experiment: Calcium mobilization assay (FLIPR), inhibition of S1P-stimulated calcium increase; format: cell-based; details: HTC cells expressing Edg-8
T4 construct: expressed in transfected cells; host or cells: HTC rat hepatoma cells
T4 sequence (Q9H228 whole entry): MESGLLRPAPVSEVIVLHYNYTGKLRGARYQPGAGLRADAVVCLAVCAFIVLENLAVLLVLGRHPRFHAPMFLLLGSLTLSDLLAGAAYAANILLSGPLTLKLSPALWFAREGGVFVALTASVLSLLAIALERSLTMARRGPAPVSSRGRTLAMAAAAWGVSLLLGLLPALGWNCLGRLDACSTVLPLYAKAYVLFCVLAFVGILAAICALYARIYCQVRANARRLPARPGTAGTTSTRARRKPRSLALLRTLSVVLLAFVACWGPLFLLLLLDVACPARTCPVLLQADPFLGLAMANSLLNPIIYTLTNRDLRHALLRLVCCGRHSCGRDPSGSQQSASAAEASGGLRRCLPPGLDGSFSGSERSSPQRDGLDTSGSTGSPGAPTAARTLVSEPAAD

[5] = system: Adrenergic α1, Non-Selective; experiment: Radioligand binding assay, 3H Prazosin; parameters: species or system Wistar Rat; details: significance criteria ≧50% of max stimulation or inhibition
Description: (§1) In order to test the selectivity of compounds, various enzyme assays as well as radioligand binding assays were performed using numerous non-Edg receptor targets as listed below.
(§2) A radioligand binding assay was performed using adrenergic α1 according to the method of Greengrass and Bremner 1979, Eur. J. Pharmacol. 55:323-326. A radioligand binding assay was performed using adrenergic α2 according to the method of Boyajian and Leslie, 1987, J. Pharmacol. Exp. Ther. 241:1092-1098. A radioligand binding assay was performed using adrenergic β according to the method of Feve et al., 1994, Proc. Natl. Acad. Sci. USA 91:5677-5681. A radioligand binding assay was performed using angiotensin AT2 according to the method of Whitebread et al., 1991, Biochem. Biophys. Res. Comm. 181:1365-1371. A radioligand binding assay was performed using calcium channel Type L, dihydropyridine according to the method of Ehlert et al., 1982, Life Sci. 30:2191-2202. A radioligand binding assay was performed using dopamine D2L according to the method of Bunzo et al., 1988, Nature 336:783-787. A radioligand binding assay was performed using endothelin ETA according to the method of Mihara et al., 1994, J. Pharmacol. Exp Ther. 268:1122-1127. A radioligand binding assay was performed using histamine H1 Central according to the method of Hill et al., 1978, J. Neurochem. 31:997-1004. […]

[6] = system: Calcium Channel Type L, Dihydropyridine; experiment: Radioligand binding assay, 3H Nitrendipine; parameters: species or system Wistar Rat; details: significance criteria ≧50% of max stimulation or inhibition
Description: as §1, §2

[7] = target: T5, Dopamine D2L (Homo sapiens, UniProt P14416); experiment: Radioligand binding assay, 3H Spiperone; details: significance criteria ≧50% of max stimulation or inhibition
T5 construct: expressed in transfected cells; host or cells: CHO cells
T5 sequence (P14416 whole entry): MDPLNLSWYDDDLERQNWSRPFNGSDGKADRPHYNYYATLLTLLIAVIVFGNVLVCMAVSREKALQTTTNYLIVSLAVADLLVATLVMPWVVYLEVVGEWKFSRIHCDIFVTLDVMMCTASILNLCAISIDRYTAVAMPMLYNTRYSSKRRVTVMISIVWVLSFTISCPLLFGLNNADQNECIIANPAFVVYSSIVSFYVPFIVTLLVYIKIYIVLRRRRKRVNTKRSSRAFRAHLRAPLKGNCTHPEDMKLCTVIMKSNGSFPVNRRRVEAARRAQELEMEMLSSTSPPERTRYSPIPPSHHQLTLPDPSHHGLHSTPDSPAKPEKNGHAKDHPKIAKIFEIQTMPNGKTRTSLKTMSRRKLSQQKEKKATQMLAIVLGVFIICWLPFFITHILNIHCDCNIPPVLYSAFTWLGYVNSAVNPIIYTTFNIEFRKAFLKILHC
Description: as §1, §2

[8] = target: T6, Endothelin ETA (Homo sapiens, UniProt P25101); experiment: Radioligand binding assay, 125I Endothelin; details: significance criteria ≧50% of max stimulation or inhibition
T6 construct: expressed in transfected cells; host or cells: CHO cells
T6 sequence (P25101 21-427): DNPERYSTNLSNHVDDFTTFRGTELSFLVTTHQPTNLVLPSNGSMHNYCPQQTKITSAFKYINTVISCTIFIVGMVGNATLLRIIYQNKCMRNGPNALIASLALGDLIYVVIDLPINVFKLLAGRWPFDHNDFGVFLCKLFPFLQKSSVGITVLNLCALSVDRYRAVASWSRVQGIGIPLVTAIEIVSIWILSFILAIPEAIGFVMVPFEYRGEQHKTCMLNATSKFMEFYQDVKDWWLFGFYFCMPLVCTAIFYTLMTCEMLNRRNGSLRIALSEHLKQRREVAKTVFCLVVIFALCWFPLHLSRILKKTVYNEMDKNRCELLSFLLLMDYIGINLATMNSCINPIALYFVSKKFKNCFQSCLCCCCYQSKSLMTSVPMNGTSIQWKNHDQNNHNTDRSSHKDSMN
Description: as §1, §2

[9] = target: T7, Histamine H1, Central (Cavia porcellus, UniProt P31389); experiment: Radioligand binding assay, 3H Pyrilamine; parameters: species or system Guinea pig; details: significance criteria ≧50% of max stimulation or inhibition
T7 construct: Source: Guinea pig cerebellum; from tissue; host or cells: guinea pig cerebellum
T7 sequence (P31389 whole entry): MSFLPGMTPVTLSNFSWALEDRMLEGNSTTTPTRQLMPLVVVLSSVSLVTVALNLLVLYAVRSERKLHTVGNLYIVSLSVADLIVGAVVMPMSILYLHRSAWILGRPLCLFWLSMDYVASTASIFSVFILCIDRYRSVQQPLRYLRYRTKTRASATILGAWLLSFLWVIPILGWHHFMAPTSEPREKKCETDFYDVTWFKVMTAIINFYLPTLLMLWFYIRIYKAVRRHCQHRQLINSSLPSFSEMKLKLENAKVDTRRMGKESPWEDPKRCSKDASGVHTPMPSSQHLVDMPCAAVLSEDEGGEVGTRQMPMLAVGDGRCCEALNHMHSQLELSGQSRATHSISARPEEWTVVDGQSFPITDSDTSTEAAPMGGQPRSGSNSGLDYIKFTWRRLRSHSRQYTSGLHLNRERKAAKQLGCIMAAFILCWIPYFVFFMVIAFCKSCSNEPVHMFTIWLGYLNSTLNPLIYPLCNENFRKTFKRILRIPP
Description: as §1, §2

[10] = system: Muscarinic Non-Selective, Central; experiment: Radioligand binding assay, 3H Quinuclidinyl benzilate; parameters: species or system Wistar rat; details: significance criteria ≧50% of max stimulation or inhibition
Description: as §1, §2

[11] = concentrations as high as 20 µM

T1 sequence (P21453 whole entry): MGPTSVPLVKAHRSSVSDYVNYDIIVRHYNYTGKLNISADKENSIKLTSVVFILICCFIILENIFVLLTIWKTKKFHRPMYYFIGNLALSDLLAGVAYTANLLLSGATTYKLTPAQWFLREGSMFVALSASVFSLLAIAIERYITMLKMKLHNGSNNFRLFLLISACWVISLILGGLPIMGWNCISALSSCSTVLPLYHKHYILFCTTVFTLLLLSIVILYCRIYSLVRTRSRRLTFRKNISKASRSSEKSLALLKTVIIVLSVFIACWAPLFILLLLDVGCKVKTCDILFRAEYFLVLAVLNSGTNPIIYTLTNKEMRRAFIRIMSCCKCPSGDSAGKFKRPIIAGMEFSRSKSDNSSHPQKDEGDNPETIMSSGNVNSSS

## CCOC(=O)c1c(NC(=O)NS(=O)(=O)c2ccccc2Cl)sc2c1CCCC2 [Compound 101]
[1]
  IC50: > 20 µM
[1]; [11]
  inhibition of S1P-stimulated calcium increases, Edg-1: did not inhibit
[2]
  IC50: > 20 µM
[2]; [11]
  inhibition of S1P-stimulated calcium increases, Edg-5: did not inhibit
[3]; HTC cells expressing Edg-7
  selective inhibition of the Edg-7 receptor (FIG. 1, FIG. 2): specifically inhibit
[3]; HTC cells expressing human Edg 7
  IC50: 1.59 µM
[3]; inhibitory selectivity for Edg-7 relative to other Edg receptors
  Fold Selectivity: >12.6 Fold
[4]
  IC50: > 20 µM
[4]; [11]
  inhibition of S1P-stimulated calcium increases, Edg-8: did not inhibit
[5]
  activity in radioligand binding assay, Adrenergic Alpha 1, non-selective: no significant activity
[6]
  activity in radioligand binding assay, Calcium Channels Type L, DHP: no significant activity
[7]
  activity in radioligand binding assay, Dopamine D2L: no significant activity
[8]
  activity in radioligand binding assay, Endothelin ETA: no significant activity
[9]
  activity in radioligand binding assay, H1 central: no significant activity
[10]
  activity in radioligand binding assay, Muscarinic, non-selective, central: no significant activity
other
  melting point: 222 to 225 °C
